Assays:
Format in all cases: in vivo, rabbit
[1] = system: REC1_8 (MspI CCCG 243) mRNA; assay: TOGA analysis, REC1_8; conditions: REC1_8 CCCG 243; rabbit aorta, 14 days cholesterol
Method: (§1) To perform the studies, New Zealand male rabbits weighing 2.0-2.5 kg (Charles River, Calco, Italy) were used. The rabbits were divided into three groups and maintained in identical experimental conditions: (1) control group (n=15); rabbits fed a cholesterol-rich diet; (2) lercanidipine-treated group (n=15); rabbits fed a cholesterol-rich diet and also treated with lercanidipine (3 mg/kg/week); and (3) (R)-lercanidipine-treated group (n=5); rabbits fed a cholesterol-rich diet and also treated with the (R)-enantiomer of lercanidipine (3 mg/kg/week). After a 2 week period of subcutaneous, once a week, pretreatment with 3 mg/kg/week of lercanidipine or (R)-lercanidipine, the rabbits received a daily cholesterol supplement for up to 8 weeks or 2 weeks, respectively. In the following examples, use of the term “lercanidipine” refers to the racemic mixture of lercanidipine hydrochloride, whereas “(R)-lercanidipine” refers to the (R)-enantiomer of lercanidipine hydrochloride.
(§2) The mRNA from the above-described groups was isolated from aorta at different time points, resulting in the following mRNA samples: (1) Day 0 Control=no administered cholesterol, no lercanidipine; (2) Day 0+lercanidipine=no administered cholesterol, treatment with lercanipidine (2 weeks; 3 mg/kg/week); (3) Day 14 Control=cholesterol diet for two weeks, no lercanidipine; (4) Day 14+lercanidipine=cholesterol diet for two weeks, treatment with lercanidipine (four weeks; 3 mg/kg/week); (5) Week 8 Control=cholesterol diet for 8 weeks, no lercanidipine; and (6) Week 8+lercanidipine=cholesterol diet for 8 weeks, treatment with lercanidipine (10 weeks; 3 mg/kg/week). In addition, Day 14+(R)-lercanidipine mRNA samples were prepared from rabbits given a cholesterol diet for two weeks and treated with 3 mg/kg/week (R)-lercanidipine for four weeks.
(§3) Aorta mRNAs were prepared in the following manner. First, the aortas from each experimental group were retrieved and shredded using a polytron homogenizer. The samples were further homogenized using a teflon pestle, after which the cellular debris, nuclei, and blood cells were pelleted by centrifugation. The supernatants were extracted twice with phenol-chloroform-isoamyl alcohol and once with chloroform-isoamyl alcohol. RNA was then precipitated from the aqueous phase with ethanol. The poly A+ mRNA was prepared using standard methods of polyA selection known in the art (Schriber et al., J. Mol. Biol., 142:93-116 (1980)).
(§4) The isolated mRNA was analyzed using a method of simultaneous sequence-specific identification of mRNAs known as TOGA, described in U.S. Pat. No. 5,459,037 and U.S. Pat. No. 5,807,680, hereby incorporated herein by reference. In a preferred embodiment, the TOGA method further comprised an additional PCR step performed using a mixture of four 5′ PCR primers and cDNA templates prepared from a population of antisense cRNAs. A final PCR step that used a mixture of 256 5′ PCR primers produced PCR products that were cDNA fragments that corresponded to the 3′-region of the starting mRNA population. The produced PCR products were then identified by: (a) the initial 5′ sequence comprising the sequence remainder of the recognition site of the restriction endonuclease used to cut and isolate the 3′ region plus the sequence of the preferably four parsing bases immediately 3′ to the remainder of the recognition site, preferably the sequence of the entire fragment; and (b) the length of the fragment. […]

REC1_19 (TGTT 393) mRNA = assay: TOGA analysis, REC1_19; conditions: REC1_19 TGTT 393; rabbit aorta, cholesterol 14 days
Method: as §1, §2, §3, §4

[2] = system: REC1_24 (digital address CCGG 232) mRNA; assay: TOGA analysis, REC1_24; conditions: REC1_24 CCGG 232; rabbit aorta, 14 days cholesterol
Method: as §1, §2, §3
(§5) The isolated mRNA was analyzed using a method of simultaneous sequence-specific identification of mRNAs known as TOGA, described in U.S. Pat. No. 5,459,037 and U.S. Pat. No. 5,807,680, hereby incorporated herein by reference. In a preferred embodiment, the TOGA method further comprised an additional PCR step performed using a mixture of four 5′ PCR primers and cDNA templates prepared from a population of antisense cRNAs. A final PCR step that used a mixture of 256 5′ PCR primers produced PCR products that were cDNA fragments that corresponded to the 3′-region of the starting mRNA population. The produced PCR products were then identified by: (a) the initial 5′ sequence comprising the sequence remainder of the recognition site of the restriction endonuclease used to cut and isolate the 3′ region plus the sequence of the preferably four parsing bases immediately 3′ to the remainder of the recognition site, preferably the sequence of the entire fragment; and (b) the length of the fragment. These two parameters, sequence and fragment length, were used to compare the obtained PCR products to a database of known polynucleotide sequences. Since the length of the obtained PCR products includes known vector sequences at the 5′ and 3′ ends of the insert, the sequence of the insert provided in the sequence listing is shorter than the fragment length that forms part of the digital address.
(§6) The method yields Digital Sequence Tags (DSTs), that is, polynucleotides that are expressed sequence tags of the 3′ end of mRNAs. […]

[3] = system: REC1_1 (MspI AAGC 288) mRNA, TYRO protein tyrosine kinase binding p; assay: TOGA analysis, REC1_1; conditions: REC1_1, AAGC 288; rabbit aorta; 14 days cholesterol + (R)-enantiomer
Method: as §1, §2, §3, §5, §6

[4] = system: REC1_28 (digital address CGGT 101) mRNA, calgizzarin; assay: TOGA analysis, REC1_28; conditions: REC1_28 CGGT 101; rabbit aorta, 14 days cholesterol
Method: as §1, §2, §3, §5, §6

[5] = system: REC1_37 (digital address TTCA 264) mRNA, ribosomal protein L15; assay: TOGA analysis, REC1_37; conditions: REC1_37 TTCA 264; rabbit aorta, cholesterol 14 days
Method: as §1, §2, §3, §5, §6

[6] = system: REC1_22 (digital address TGGG 164) mRNA; assay: TOGA analysis, REC1_22; conditions: REC1_22 TGGG 164; rabbit aorta, cholesterol 14 days
Method: as §1, §2, §3, §5, §6

[7] = system: REC1_7 (MspI CACA 282) mRNA; assay: TOGA analysis, REC1_7; conditions: REC1_7, CACA 282; rabbit aorta; 14 days cholesterol + (R)-enantiomer
Method: as §1, §2, §3, §5, §6

[8] = system: REC1_2 (MspI AATC 108) mRNA; assay: TOGA analysis, REC1_2; conditions: REC1_2, AATC 108; rabbit aorta; 14 days cholesterol + (R)-enantiomer
Method: as §1, §2, §3, §4

[9] = system: REC1_33 (digital address CCGA 96) mRNA, as1_casein gene; assay: TOGA analysis, REC1_33; conditions: REC1_33 CCGA 96; rabbit aorta, 14 days cholesterol
Method: as §1, §2, §3, §5, §6

[10] = system: REC1_34 (digital address CGGT 209) mRNA; assay: TOGA analysis, REC1_34; conditions: REC1_34 CGGT 209; rabbit aorta, 14 days cholesterol
Method: as §1, §2, §3, §5, §6

[11] = system: REC1_31 (digital address TGCA 210) mRNA, mitochondrial genome; assay: TOGA analysis, REC1_31; conditions: REC1_31 TGCA 210; rabbit aorta, cholesterol 14 days
Method: as §1, §2, §3, §5, §6

For `COC(=O)C1=C(C)NC(C)=C(C(=O)OC(C)(C)CN(C)CCC(c2ccccc2)c2ccccc2)[C@@H]1c1cccc([N+](=O)[O-])c1` [Lercanidipine (R)], the “level of gene expression, 14 Day hypercholesterol + Lercanidipine (R)” value [1] was 539, the “level of gene expression, 14 Day hypercholesterol + Lercanidipine (R)” value (REC1_19 (TGTT 393) mRNA) was 748 and the “level of gene expression, 14 Day hypercholesterol + Lercanidipine (R)” value [2] was 139. The “level of gene expression (TOGA), 14 Day hypercholesterol + Lercanidipine (R)” value (shortened to “level of gene expression (TOGA)”) [3] was 872, the “level of gene expression, 14 Day hypercholesterol + Lercanidipine (R)” value [4] was 864 and the “level of gene expression, 14 Day hypercholesterol + Lercanidipine (R)” value [5] was 42. For the same molecule, the “level of gene expression, 14 Day hypercholesterol + Lercanidipine (R)” value [6] was 47, the “level of gene expression (TOGA)” value [7] was 683 and the “level of gene expression (TOGA)” value [8] was 1250. The “level of gene expression, 14 Day hypercholesterol + Lercanidipine (R)” value [9] was 170, the “level of gene expression, 14 Day hypercholesterol + Lercanidipine (R)” value [10] was 58 and the “level of gene expression, 14 Day hypercholesterol + Lercanidipine (R)” value [11] was 28.

— patent publication US20030215817A1, “Modulation of gene expression in formation of fatty atherosclerotic lesions” (priority 2003, published 2003)
